Laboratory results: patent US9771353B2, “Kinase inhibitors based upon N-alkyl pyrazoles” (RESPIVERT LIMITED, priority 2013, dated 2017)

Experiments:
[1] = target: GSK3α (Homo sapiens (Human), UniProt P49840); assay: GSK 3α enzyme inhibition (FRET, Z-LYTE), Method 2; type: biochemical
Method: (§1) The enzyme inhibitory activities of compounds disclosed herein are determined by FRET using synthetic peptides labelled with both donor and acceptor fluorophores (Z-LYTE, Invitrogen Ltd., Paisley, UK).
The inhibitory activities of compounds of the invention against the GSK 3α enzyme isoform (Invitrogen), are evaluated by determining the level of activation/phosphorylation of the target peptide. The GSK3-α protein (500 ng/mL, 2.5 μL) is mixed with the test compound (2.5 μL at either 4 μg/mL, 0.4 μg/mL, 0.04 μg/mL, or 0.004 μg/mL) for 2 hr at RT. The FRET peptide (8 μM, 2.5 μL), which is a phosphorylation target for GSK3α, and ATP (40 μM, 2.5 μL) are then added to the enzyme/compound mixture and the resulting mixture incubated for 1 hr. Development reagent (protease, 5 μL) is added for 1 hr prior to detection in a fluorescence microplate reader (Varioskan® Flash, ThermoFisher Scientific).
(§2) In all cases, the site-specific protease cleaves non-phosphorylated peptide only and eliminates the FRET signal. Phosphorylation levels of each reaction are calculated using the ratio of coumarin emission (donor) over fluorescein emission (acceptor), for which high ratios indicate high phosphorylation and low ratios indicate low phosphorylation levels.
This method follows the same steps as Method 1 above, but utilises a shorter period of mixing of the test compound (105 minutes instead of 2 hours) with the GSK3-α protein.

[2] = tested on: PBMCs; assay: LPS-induced TNFα/IL-8 release in PBMC cells, assay (b); type: cell-based; conditions: Homo sapiens, LPS-stimulated PBMCs, read-out: IC50 Values for Inhibition of Cytokine Release, PBMCs IL-8
Method: Peripheral blood mononuclear cells (PBMCs) from healthy subjects are separated from whole blood using a density gradient (Lymphoprep, Axis-Shield Healthcare). The PBMCs are seeded in 96 well plates and treated with compounds at the desired concentration for 2 hours before addition of 1 ng/mL LPS (Escherichia Coli 0111:B4 from Sigma Aldrich) for 24 hours under normal tissue culture conditions (37° C., 5% CO2). The supernatant is harvested for determination of IL-8 and TNFα concentrations by sandwich ELISA (Duo-set, R&D systems) and read on the fluorescence microplate reader (Varioskan® Flash, ThermoFisher Scientific).

[3] = target: p38 MAPKα (Homo sapiens (Human), UniProt Q16539); assay: p38 MAPKα enzyme inhibition (FRET, Z-LYTE), Method 2; type: biochemical
[4] = tested on: PBMCs; assay: IL-2 and IFN gamma release in CD3/CD28 stimulated PBMC cells, assay (c); type: cell-based; conditions: Homo sapiens
Method: PBMCs from healthy subjects are separated from whole blood using a density gradient (Lymphoprep, Axis-Shield Healthcare). Cells are added to a 96 well plate pre-coated with a mixture of CD3/CD28 monoclonal antibodies (0.3 μg/mL eBioscience and 3 μg/mL BD Pharmingen respectively). Compound at the desired concentration is then added to the wells and the plate left for 3 days under normal tissue culture conditions. Supernatants are harvested and IL-2 and IFN gamma release determined by Sandwich ELISA (Duo-set, R&D System). The IC50 is determined from the dose response curve.

[5] = tested on: d-U937 cells; assay: Accumulation of β catenin in d-U937 cells, assay (m); type: cell-based, human
Method: U937 cells, a human monocytic cell line, are differentiated into macrophage-type cells by incubation with PMA; (100 ng/mL) for between 48 to 72 hr. The cells are then incubated with either final concentrations of test compound or vehicle for 18 hr. The induction of β-catenin by the test compounds is stopped by replacing the media with 4% formaldehyde solution. Endogenous peroxide activity is neutralised by incubating with quenching buffer (100 μL, 0.1% sodium azide, 1% H2O2 in PBS with 0.05% Tween-20) for 20 min. The cells are washed with washing buffer (200 μL; PBS containing 0.05% Tween-20) and incubated with blocking solution (200 μL; 5% milk in PBS) for 1 hr, re-washed with washing buffer (200 μL) and then incubated overnight with anti-β-catenin antibody solution (50 μL) in 1% BSA/PBS (BD, Oxford, UK).
After washing with washing buffer (3×200 μL; PBS containing 0.05% Tween-20), cells are incubated with an HRP-conjugated secondary antibody solution (100 μL) in 1% BSA/PBS (Dako, Cambridge, UK) and the resultant signal is determined colourimetrically (OD: 450 nm with a reference wavelength of 655 nm) using TMB substrate (50 μL; R&D Systems, Abingdon, UK). This reaction is stopped by addition of 1N H2SO4 solution (50 μL). Cells are then washed with washing buffer and 2% crystal violet solution (50 μL) is applied for 30 min. After washing with washing buffer (3×200 μL), 1% SDS (100 μL) is added to each well and the plates are shaken lightly for 1 hr prior to measuring the absorbance at 595 nm (Varioskan® Flash, Thermo-Fisher Scientific).
The measured OD450-655 readings are corrected for cell number by dividing the OD450-655 by the OD595 readings. The percentage induction for each well is calculated relative to vehicle, and the ratio of induction normalised in comparison with the induction produced by a standard control comprising of N-(4-(4-(3-(3-tert-butyl-1-p-tolyl-1H-pyrazol-5-yl)ureido)naphthalen-1-yloxy)pyridin-2-yl)-2-methoxyacetamide (1 μg/mL) which is defined as 100%.

[6] = target: c-Src (Homo sapiens (Human), UniProt P12931); assay: c-Src enzyme inhibition (FRET, Z-LYTE); type: biochemical
Method: as §1
(§3) The relevant enzyme (3000 ng/mL or 2000 ng/mL respectively, 2.5 μL) is incubated with the test compound (either 4 μg/mL, 0.4 μg/mL, 0.04 μg/mL, or 0.004 μg/mL, 2.5 μL each) for 2 hr at RT. The FRET peptides (8 μM, 2.5 μL), and appropriate ATP solutions (2.5 μL, 800 μM for c-Src, and 60 μM ATP for Syk) are then added to the enzymes/compound mixtures and incubated for 1 hr. Development reagent (protease, 5 μL) is added for 1 hr prior to detection in a fluorescence microplate reader (Varioskan® Flash, ThermoFisher Scientific).
as §2

[7] = target: Syk (Homo sapiens (Human), UniProt P43405); assay: Syk enzyme inhibition (FRET, Z-LYTE); type: biochemical
Method: as §1
as §3, with “The inhibitory activities of compounds of the invention against c-Src and Syk enzymes (Invitrogen), are evaluated in a similar fashion to that described hereinabove. The relevant” for “The relevant”
as §2

[8] = IFNγ, read-out: IC50 Values for Inhibition of Cytokine Release, PBMCs IFNγ
[9] = 1 μg/mL test compound, normalised to reference N-(4-(4-(3-(3-tert-butyl-1-p-tolyl-1H-pyrazol-5-yl)ureido)naphthalen-1-yloxy)pyridin-2-yl)-2-methoxyacetamide
[10] = 5 μg/mL test compound, normalised to the same reference compound
[11] = 10 μg/mL test compound, normalised to the same reference compound

Sequence of GSK3α (P49840 whole entry): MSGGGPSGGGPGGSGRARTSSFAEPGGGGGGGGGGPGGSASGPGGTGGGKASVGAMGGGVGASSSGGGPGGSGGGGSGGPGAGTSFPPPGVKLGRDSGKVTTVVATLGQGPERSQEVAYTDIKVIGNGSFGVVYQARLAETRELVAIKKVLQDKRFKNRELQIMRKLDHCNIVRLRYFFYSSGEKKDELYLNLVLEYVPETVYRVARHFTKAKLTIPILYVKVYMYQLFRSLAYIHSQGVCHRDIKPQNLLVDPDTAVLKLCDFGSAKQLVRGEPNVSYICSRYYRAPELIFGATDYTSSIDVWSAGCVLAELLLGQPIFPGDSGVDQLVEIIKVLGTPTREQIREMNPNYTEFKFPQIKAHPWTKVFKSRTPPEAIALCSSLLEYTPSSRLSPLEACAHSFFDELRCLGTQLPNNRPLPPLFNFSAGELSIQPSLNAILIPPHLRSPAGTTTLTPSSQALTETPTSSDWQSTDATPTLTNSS
Sequence of p38 MAPKα (Q16539 whole entry): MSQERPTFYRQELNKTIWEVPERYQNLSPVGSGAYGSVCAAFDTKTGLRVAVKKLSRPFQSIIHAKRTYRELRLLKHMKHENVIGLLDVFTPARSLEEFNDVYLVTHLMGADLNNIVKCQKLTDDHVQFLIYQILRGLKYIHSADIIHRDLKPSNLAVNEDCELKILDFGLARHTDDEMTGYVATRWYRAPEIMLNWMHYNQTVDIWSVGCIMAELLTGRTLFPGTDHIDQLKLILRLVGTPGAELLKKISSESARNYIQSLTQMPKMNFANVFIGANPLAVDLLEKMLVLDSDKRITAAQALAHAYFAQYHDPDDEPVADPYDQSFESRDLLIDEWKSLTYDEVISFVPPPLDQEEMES
Sequence of c-Src (P12931 whole entry, looked up): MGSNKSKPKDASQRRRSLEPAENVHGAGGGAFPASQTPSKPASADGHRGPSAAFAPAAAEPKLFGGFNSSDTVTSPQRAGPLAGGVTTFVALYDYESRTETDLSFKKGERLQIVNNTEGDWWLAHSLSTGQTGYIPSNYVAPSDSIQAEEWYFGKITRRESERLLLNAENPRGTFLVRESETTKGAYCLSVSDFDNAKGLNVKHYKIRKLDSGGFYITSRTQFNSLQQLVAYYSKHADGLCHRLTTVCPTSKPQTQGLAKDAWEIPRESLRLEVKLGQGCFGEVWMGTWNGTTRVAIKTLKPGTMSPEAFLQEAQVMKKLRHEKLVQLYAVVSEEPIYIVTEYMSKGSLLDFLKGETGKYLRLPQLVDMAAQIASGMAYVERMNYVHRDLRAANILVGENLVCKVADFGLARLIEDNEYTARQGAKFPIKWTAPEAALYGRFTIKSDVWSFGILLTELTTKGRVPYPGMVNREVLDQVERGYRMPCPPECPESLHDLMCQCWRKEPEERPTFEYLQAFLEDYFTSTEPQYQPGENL

Row | SMILES | IC50 [1] | IC50 [3] | IC50 [6] | IC50 [7] | IC50 [2] | IC50 [4, 8] | % β-catenin induction [5, 9] | % β-catenin induction [5, 10] | % β-catenin induction [5, 11] | IC50 ([4]; IL-2, read-out: IC50 Values for Inhibition of Cytokine Release, PBMCs IL-2)
1 | C#Cc1cc(Nc2nccc(Oc3ccc(NC(=O)Nc4cc(C(C)(C)C)nn4C(C)C)c4ccccc34)n2)cc(C(=O)NCCOCCOCCOC)c1 [13(a), 3-((4-((4-(3-(3-(tert-Butyl)-1-isopropyl-1H-pyrazol-5-yl)ureido)naphthalen-1-yl)oxy)pyrimidin-2-yl)amino)-5-ethynyl-N-(2-(2-(2-methoxyethoxy)ethoxy)ethyl)-benzamide] | 8.61 µM |  |  |  | 5.4 nM |  |  |  |  | 
2 | C#Cc1cc(Nc2nccc(Oc3ccc(NC(=O)Nc4cc(C(C)(C)C)nn4CCC)c4ccccc34)n2)cc(C(=O)NCCOCCOCCOC)c1 [13(b), 3-((4-((4-(3-(3-(tert-Butyl)-1-propyl-1H-pyrazol-5-yl)ureido)naphthalen-1-yl)oxy)-pyrimidin-2-yl)amino)-5-ethynyl-N-(2-(2-(2-methoxyethoxy)ethoxy)ethyl)benzamide] | 13.1 µM |  |  |  | 9.3 nM |  |  |  |  | 
3 | COc1cc(Nc2nccc(Oc3ccc(NC(=O)Nc4cc(C(C)(C)C)nn4C)c4ccccc34)n2)cc(S(=O)(=O)C2CC2)c1 [Example 3, 1-(3-(tert-Butyl)-1-methyl-1H-pyrazol-5-yl)-3-(4-((2-((3-(cyclopropylsulfonyl)-5-methoxy-phenyl)amino)pyrimidin-4-yl)oxy)naphthalen-1-yl)urea] | 1.94 µM | 36 nM |  |  | 7.2 nM | 22 nM | −1% | 25% | 27% | 
4 | COCCOCCOCCOc1cc(Nc2cc(Oc3ccc(NC(=O)Nc4cc(C(C)(C)C)nn4C)c4ccccc34)ccn2)cc(OC)c1 [Example 5, 1-(3-(tert-Butyl)-1-methyl-1H-pyrazol-5-yl)-3-(4-((2-((3-methoxy-5-(2-(2-(2-methoxy-ethoxy)ethoxy)ethoxy)phenyl)amino)pyridin-4-yl)oxy)naphthalen-1-yl)] | 7.49 µM | 160 nM | 10 nM | > 1000 nM | 2.8 nM | 13.3 nM | −5.5% | −7% | −2% | 33.8 nM
5 | C#Cc1cc(Nc2nccc(Oc3ccc(NC(=O)Nc4cc(C(C)(C)C)nn4C(C)(C)C)c4ccccc34)n2)cc(C(=O)NCCOCCOCCOC)c1 [Example 12, 3-((4-((4-(3-(1,3-Di-tert-butyl-1H-pyrazol-5-yl)ureido)naphthalen-1-yl)oxy)pyrimidin-2-yl)amino)-5-ethynyl-N-(2-(2-(2-methoxyethoxy)ethoxy)ethyl)benzamide] | 13.1 µM |  |  |  | 546 nM |  |  |  |  | 
6 | C#Cc1cc(Nc2nccc(Oc3ccc(NC(=O)Nc4cc(C(C)(C)C)nn4-c4ccc(C)cc4)c4ccccc34)n2)cc(C(=O)NCCN2CCOCC2)c1 [Reference Compound A, 3-((4-((4-(3-(3-(tert-Butyl)-1-(p-tolyl)-1H-pyrazol-5-yl)ureido)naphthalen-1-yl)oxy)-pyrimidin-2-yl)amino)-5-ethynyl-N-(2-morpholinoethyl)benzamide, reference compound] |  | 54 nM |  |  |  |  |  |  |  | 
7 | COCCOCCOCCOc1cc(Nc2nccc(Oc3ccc(NC(=O)Nc4cc(C(C)(C)C)nn4-c4ccc(C)cc4)c4ccccc34)n2)cc(OC)c1 [Reference Compound B, 1-(3-(tert-Butyl)-1-(p-tolyl)-1H-pyrazol-5-yl)-3-(4-((2-((3-methoxy-5-(2-(2-(2-methoxy-ethoxy)ethoxy)ethoxy)phenyl)amino)pyrimidin-4-yl)oxy)naphthalen-1-yl)urea, reference compound] |  | 139 nM |  |  |  |  |  |  |  | 

Second part, led by results:

Row | IC50 [1] | IC50 [3] | IC50 [6] | IC50 [7] | SMILES | IC50 [2] | IC50 [4, 8] | % β-catenin induction [5, 9] | % β-catenin induction [5, 10] | % β-catenin induction [5, 11] | IC50 ([4]; IL-2, read-out: IC50 Values for Inhibition of Cytokine Release, PBMCs IL-2)
8 | 1.01 µM |  |  |  | C#Cc1cc(Nc2nccc(Oc3ccc(NC(=O)Nc4cc(C(C)(C)C)nn4C)c4ccccc34)n2)cc(C(=O)NCCOCCOC)c1 [Example 4, 3-((4-((4-(3-(3-(tert-Butyl)-1-methyl-1H-pyrazol-5-yl)ureido)naphthalen-1-yl)oxy)pyrimidin-2-yl)amino)-5-ethynyl-N-(2-(2-methoxyethoxy)ethyl)] | 4.7 nM |  |  |  |  | 
9 | 1.23 µM |  |  |  | COCCOCCOCCOCCOCCOCCOCCOc1cc(Nc2nccc(Oc3ccc(NC(=O)Nc4cc(C(C)(C)C)nn4C)c4ccccc34)n2)cc(OC)c1 [Example 6, 1-(4-((2-((3-(2,5,8,11,14,17,20-Heptaoxadocosan-22-yloxy)-5-methoxyphenyl)amino)-pyrimidin-4-yl)oxy)naphthalen-1-yl)-3-(3-(tert-butyl)-1-methyl-1H-pyrazol-5-yl)urea] | 10.7 nM |  |  |  |  | 
10 | 1.85 µM | 11 nM | 5 nM | > 1000 nM | C#Cc1cc(Nc2nccc(Oc3ccc(NC(=O)Nc4cc(C(C)(C)C)nn4C)c4ccccc34)n2)cc(C(=O)NCCOCCOCCOC)c1 [Example 7, 3-((4-((4-(3-(3-(tert-Butyl)-1-methyl-1H-pyrazol-5-yl)ureido)naphthalen-1-yl)oxy)pyrimidin-2-yl)amino)-5-ethynyl-N-(2-(2-(2-methoxyethoxy)ethoxy)ethyl)benzamide] | 2.2 nM | 11.8 nM | 1.5% | 6% | 9.5% | 
